{"source": "patent US9828412B2", "about": "“Short peptide targeting EPS8 binding with EGFR and use thereof” (SOUTHERN MEDICAL UNIVERSITY, priority 2014, dated 2017)", "key": {"[1]": {"test_system": "EPS8 overexpression tumor cell line KG1α (human acute myeloid leukemia cell line)", "description": "EPS8 overexpression tumor cell line KG1α (human acute myeloid leukemia cell line, purchased from the American Type Culture Collection, ATCC) were selected as target cells, and seeded in 96-well plates at 10,000 cells/well and 100 μL/well. The medium culture was Roswell Park Memorial Institute (RPMI)-1640 containing 10% fetal bovine serum (FBS). […] Then OD values at the wavelength of 490 nm were detected by MTS assay, and KG1α cell viability was calculated.\nKG1α cell viability=[(ODexperimental-ODblank control)]/[(ODnegative control-ODblank control)]×100%."}, "[2]": {"test_system": "EPS8 overexpression tumor cell line MCF-7 (human breast cancer cell line)", "description": "EPS8 overexpression tumor cell line MCF-7 (human breast cancer cell line, purchased from ATCC) were selected as target cells, and seeded in 96-well plates at 10,000 cells/well and 100 μL/well. The medium culture was Dulbecco's Modified Eagle's Medium (DMEM) containing 10% FBS. 8 hours later, short peptide P01 was added at different final concentration of 0, 100, 300 and 500 μg/mL. MCF-7 cells were incubated with short peptide P01 for 24 hours, 48 hours and 72 hours. Then OD values at wavelength of 490 nm were detected by MTS assay, and MCF-7 cell viability was calculated.\nMCF-7 cell viability=[(ODexperimental-ODblank control)]/[(ODnegative control-ODblank control)]×100%."}}, "note": "Like-named read-outs stand apart in the source and are kept apart here. No end group written: not given here.", "data": [{"substance": "RKKNKPPPPKK-NH2 [P01, N′-Arg-Lys-Lys-Asn-Lys-Pro-Pro-Pro-Pro-Lys-Lys-NH2-C′]", "values": [{"measurement": "IC50 (KG1α cell viability)", "setting": "[1]; 24 h", "result": 888.5, "unit": "µg/mL"}, {"measurement": "IC50 (KG1α cell viability)", "setting": "[1]; 48 h", "result": 413.9, "unit": "µg/mL"}, {"measurement": "IC50 (KG1α cell viability)", "setting": "[1]; 72 h", "result": 335.6, "unit": "µg/mL"}, {"measurement": "IC50 (MCF-7 cell viability)", "setting": "[2]; 24 h", "result": 594.2, "unit": "µg/mL"}, {"measurement": "IC50 (MCF-7 cell viability)", "setting": "[2]; 48 h", "result": 374.9, "unit": "µg/mL"}, {"measurement": "IC50 (MCF-7 cell viability)", "setting": "[2]; 72 h", "result": 304.7, "unit": "µg/mL"}]}]}
